Biological target: T1, CFTR in primary human bronchial epithelial cells from a ΔF508 homozygous CF donor (CF-HBE cells) (Homo sapiens, UniProt P13569, DEL508-508)
T1 construct: Primary human bronchial epithelial cells from a ΔF508 homozygous CF donor; host or cells: primary human bronchial epithelial cells (CF-HBE), ΔF508 homozygous donor
Test: TECC24 recording analysis of CFTR-mediated transepithelial chloride transport (AUC fold over DMSO)
Assay type: cell-based
Details: 3 μM test agent, CF-HBE cells cultured 48 hours at 36.5° C.; ratio of test agent AUC of forskolin-stimulated IEQ divided by vehicle (DMSO) AUC
Protocol: Example 31: TECC24 AUC Fold Over DMSO @ 3 μM
The effects of a test agent on CFTR-mediated transepithelial chloride transport was measured using TECC24 recording analysis. Test agents were solubilized in DMSO. Solubilized test agents were mixed with incubation medium containing DMEM/F12, Ultroser G (2%; Crescent Chemical, catalog #67042), Hyclone Fetal Clone II (2%; GE Healthcare, catalog #SH30066.02), bovine brain extract (0.25%; Lonza, catalog #CC-4098), insulin (2.5 μg/mL), IL-13 (10 ng/mL), hydrocortisone (20 nM), transferrin (2.5 μg/mL), triiodothyronine (500 nM), ethanolamine (250 nM), epinephrine (1.5 μM), phosphoethanolamine (250 nM), and retinoic acid (10 nM). Primary human bronchial epithelial cells from a ΔF508 homozygous CF donor (CF-HBE cells; from University of North Carolina Cystic Fibrosis Tissue Procurement Center), grown on Transwell HTS 24-well cell culture inserts (Costar, catalog #3378), were exposed to test agents or controls dissolved in incubation medium. The CF-HBE cells were cultured at 36.5° C. for 48 hours before TECC24 recordings were performed in the presence or absence of test agent, a positive control or vehicle (DMSO).
Following incubation, the transwell cell culture inserts containing the test agent or control-treated CF-HBE cells were loaded onto a TECC24 apparatus (TECC v7 or MTECC v2; EP Design) to record the transepithelial voltage (VT) and resistance (TEER) using 4 AgCl electrodes per well configured in current-clamp mode. The apical and basolateral bath solutions both contained (in mM) 140 NaCl, 5 KCl, 2 CaCl2), 1 MgCl2, 10 Hepes, and 10 glucose (adjusted to pH 7.4 with NaOH). To inhibit basal Na+ absorption, the ENaC inhibitor benzamil (10 μM) was added to the bath. Then, the adenylate cyclase activator, forskolin (10 μM), was added to the bath to activate CFTR. The forskolin-stimulated Cl-transport was halted by addition of bumetanide (20 μM), an inhibitor of the basolateral chloride co-transporter NKCC1, to the bath to confirm that the detected signal was chloride dependent. VT and TEER recordings were digitally acquired at routine intervals using TECC or MTECC software (EP Design). VT and TEER were transformed into equivalent transepithelial Cl-current (IEQ), and the Area Under the Curve (AUC) of the IEQ time course between forskolin and bumetanide addition is generated using Excel (Microsoft). Efficacy is expressed as the ratio of the test agent AUC divided by vehicle AUC. EC50s based on AUC are generated using the non-linear regression log(agonist) vs. response function in Prism software (GraphPad) with Hill Slope fixed=1.
If a test agent increased the AUC of the forskolin-stimulated IEQ relative to vehicle in CF-HBE cells, and this increase was inhibited by bumetanide, then the test agent was considered a CFTR corrector.

T1 sequence (P13569 with tags, fused parts or gaps DEL508-508): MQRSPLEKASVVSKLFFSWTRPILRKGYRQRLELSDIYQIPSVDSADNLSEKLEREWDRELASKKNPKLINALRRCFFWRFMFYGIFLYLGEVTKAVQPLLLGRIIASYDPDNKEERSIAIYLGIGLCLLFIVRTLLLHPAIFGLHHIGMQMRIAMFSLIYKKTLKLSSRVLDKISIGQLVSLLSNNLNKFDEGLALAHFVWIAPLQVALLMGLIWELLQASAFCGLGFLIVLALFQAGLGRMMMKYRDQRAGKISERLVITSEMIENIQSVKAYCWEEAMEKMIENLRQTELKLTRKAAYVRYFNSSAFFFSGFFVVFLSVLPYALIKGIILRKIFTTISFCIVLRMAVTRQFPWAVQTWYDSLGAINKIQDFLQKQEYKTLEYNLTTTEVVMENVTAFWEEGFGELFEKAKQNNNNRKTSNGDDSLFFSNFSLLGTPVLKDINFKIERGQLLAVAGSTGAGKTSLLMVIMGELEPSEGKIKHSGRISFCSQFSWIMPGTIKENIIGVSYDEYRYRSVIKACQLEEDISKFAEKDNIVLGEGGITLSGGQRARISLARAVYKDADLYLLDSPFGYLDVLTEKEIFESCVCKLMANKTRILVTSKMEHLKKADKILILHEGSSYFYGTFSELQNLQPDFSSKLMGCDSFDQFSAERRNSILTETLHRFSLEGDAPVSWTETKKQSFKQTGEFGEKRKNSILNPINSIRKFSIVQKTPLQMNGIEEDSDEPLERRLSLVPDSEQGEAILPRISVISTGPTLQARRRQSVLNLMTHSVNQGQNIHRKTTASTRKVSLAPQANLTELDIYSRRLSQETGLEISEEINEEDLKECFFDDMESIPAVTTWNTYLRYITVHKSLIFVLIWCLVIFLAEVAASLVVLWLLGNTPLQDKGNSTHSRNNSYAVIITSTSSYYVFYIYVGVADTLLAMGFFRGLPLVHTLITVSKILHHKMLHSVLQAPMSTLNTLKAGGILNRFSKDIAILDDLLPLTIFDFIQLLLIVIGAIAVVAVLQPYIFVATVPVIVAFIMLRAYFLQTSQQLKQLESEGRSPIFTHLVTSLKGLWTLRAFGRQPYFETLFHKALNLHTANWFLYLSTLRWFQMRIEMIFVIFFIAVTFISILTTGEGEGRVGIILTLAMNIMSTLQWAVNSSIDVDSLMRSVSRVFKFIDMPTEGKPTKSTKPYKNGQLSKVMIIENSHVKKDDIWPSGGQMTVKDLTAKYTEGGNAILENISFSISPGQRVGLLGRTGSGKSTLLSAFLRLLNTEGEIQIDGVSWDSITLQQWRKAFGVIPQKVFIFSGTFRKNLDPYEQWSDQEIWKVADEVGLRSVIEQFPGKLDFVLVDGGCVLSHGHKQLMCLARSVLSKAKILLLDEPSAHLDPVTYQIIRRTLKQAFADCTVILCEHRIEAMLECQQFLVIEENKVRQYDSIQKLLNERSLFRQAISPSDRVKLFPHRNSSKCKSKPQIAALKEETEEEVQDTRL

| TECC24 AUC vs. DMSO (@3 μM) | SMILES |
| --- | --- |
| B (“B” refers to AUC between 2-5) | Nc1cccc(S(=O)(=O)Nc2ncc(-c3cccc([C@@H]4CC[C@H](OC(F)(F)F)C4)c3)c(-c3ccccc3C(F)(F)F)n2)c1 (single isomer, unassigned) [Example 30a] |
| C (“C” refers to AUC < 2) | CC(C)(C)COc1cc(-c2ccc(NS(=O)(=O)c3ccccc3)nc2-c2ccc(C(F)(F)F)cc2)ccc1Cl [Example 14, N-(5-(4-chloro-3-(neopentyloxy)phenyl)-6-(4-(trifluoromethyl)phenyl)pyridin-2-yl)benzenesulfonamide] |
| C (“C” refers to AUC < 2) | CC(C)n1nccc1-c1nc(NS(=O)(=O)c2ccccc2)cnc1-c1cccc([C@@H]2CCC(OC(F)(F)F)C2)c1 (single isomer, unassigned) [Example 10a] |
| B (“B” refers to AUC between 2-5) | Cc1cccc(C)c1-c1nc(NS(=O)(=O)c2cn(C)nc2C)cnc1-c1cccc([C@@H]2CC[C@@H](OC(F)(F)F)C2)c1 (single isomer, unassigned) [Example 7b] |
| C (“C” refers to AUC < 2) | CC(C)(C)COc1cc(-c2cnc(NS(=O)(=O)c3cccnc3)nc2-c2ccc(C(F)(F)F)cc2)ccc1Cl [Example 25, N-(5-(4-chloro-3-(neopentyloxy)phenyl)-4-(4-(trifluoromethyl)phenyl)pyrimidin-2-yl)pyridine-3-sulfonamide] |
| A (“A “refers to AUC > 5) | O=S(=O)(Nc1ncc(-c2cccc([C@@H]3CC[C@H](OC(F)(F)F)C3)c2)c(-c2ccccc2C(F)(F)F)n1)c1ccccc1 (single isomer, unassigned) [Example 28a] |
| C (“C” refers to AUC < 2) | Cc1nn(C)cc1S(=O)(=O)Nc1cnc(-c2cccc([C@@H]3CC[C@@H](OC(F)(F)F)C3)c2)c(-c2ccnn2C(C)C)n1 [Example 11, N-(6-(1-isopropyl-1H-pyrazol-5-yl)-5-(3-((1R,3R)-3-(trifluoromethoxy)cyclopentyl)phenyl)pyrazin-2-yl)-1,3-dimethyl-1H-pyrazole-4-sulfonamide] |
| B (“B” refers to AUC between 2-5) | CC(C)(C)COc1cc(-c2cnc(NS(=O)(=O)c3cccc(N)c3)nc2-c2ccc(C(F)(F)F)cc2)ccc1Cl [Example 23] |
| C (“C” refers to AUC < 2) | CC(C)c1ccccc1-c1nc(NS(=O)(=O)c2ccccc2)cnc1-c1cccc([C@@H]2CC[C@H](OC(F)(F)F)C2)c1 (single isomer, unassigned) [Example 9a] |
| C (“C” refers to AUC < 2) | CC(C)(C)COc1cc(-c2cnc(NS(=O)(=O)c3cccc(Cl)n3)nc2-c2ccc(C(F)(F)F)cc2)ccc1Cl [Example 26, 5-(4-chloro-3-(neopentyloxy)phenyl)-2-(((6-chloropyridin-2-yl)sulfonyl)-12-azaneyl)-4-(4-(trifluoromethyl)phenyl)pyrimidine] |
| B (“B” refers to AUC between 2-5) | Nc1cccc(S(=O)(=O)Nc2ncc(-c3cccc([C@H]4CC[C@@H](OC(F)(F)F)C4)c3)c(-c3ccccc3C(F)(F)F)n2)c1 (single isomer, unassigned) [Example 29a] |
| A (“A “refers to AUC > 5) | Cc1cccc(C)c1-c1nc(NS(=O)(=O)c2ccccc2)cnc1-c1cccc([C@@H]2CC[C@@H](OC(F)(F)F)C2)c1 (single isomer, unassigned) [Example 6b] |
| B (“B” refers to AUC between 2-5) | O=S(=O)(Nc1ncc(-c2cccc([C@H]3CC[C@H](OC(F)(F)F)C3)c2)c(-c2ccccc2C(F)(F)F)n1)c1ccccc1 (single isomer, unassigned) [Example 27a] |
| C (“C” refers to AUC < 2) | CC(C)(C)COc1cc(-c2cnc(NS(=O)(=O)c3ccccc3)nc2-c2ccc(C(F)(F)F)cc2)ccc1Cl [Example 22, 5-(4-chloro-3-(neopentyloxy)phenyl)-2-((phenylsulfonyl)-12-azaneyl)-4-(4-(trifluoromethyl)phenyl)pyrimidine] |
| C (“C” refers to AUC < 2) | Cc1cccc(C)c1-c1nc(NS(=O)(=O)c2cn(C)nc2C)cnc1-c1cccc([C@@H]2CC[C@H](OC(F)(F)F)C2)c1 (single isomer, unassigned) [Example 7a] |
| C (“C” refers to AUC < 2) | CC(C)(C)COc1cc(-c2ccc(NS(=O)(=O)c3cccc(N)n3)nc2-c2ccc(C(F)(F)F)cc2)ccc1Cl [Example 13, 6-amino-N-(5-(4-chloro-3-(neopentyloxy)phenyl)-6-(4-(trifluoromethyl)phenyl)pyridin-2-yl)pyridine-2-sulfonamide] |
| A (“A “refers to AUC > 5) | Nc1cccc(S(=O)(=O)Nc2ncc(-c3cccc([C@@H]4CC[C@@H](OC(F)(F)F)C4)c3)c(-c3ccccc3C(F)(F)F)n2)c1 (single isomer, unassigned) [Example 30b] |
| C (“C” refers to AUC < 2) | Cc1nn(C)cc1S(=O)(=O)Nc1cnc(-c2cccc([C@@H]3CC[C@H](OC(F)(F)F)C3)c2)c(-c2ccccc2C(C)C)n1 (single isomer, unassigned) [Example 8a] |
| B (“B” refers to AUC between 2-5) | Cc1nn(C)cc1S(=O)(=O)Nc1cnc(-c2cccc([C@@H]3CC[C@@H](OC(F)(F)F)C3)c2)c(-c2ccccc2C(C)C)n1 (single isomer, unassigned) [Example 8b] |
| A (“A “refers to AUC > 5) | CCc1ccccc1-c1nc(NS(=O)(=O)c2cccc(N3CCCC(C)(C(=O)O)C3)n2)ccc1-c1cccc(OCC(F)(F)F)c1 (stereo not drawn) [Example 21, 1-[6-[[6-(2-ethylphenyl)-5-[3-(2,2,2-trifluoroethoxy)phenyl]-2-pyridyl]sulfamoyl]-2-pyridyl]-3-methyl-piperidine-3-carboxylic acid] |
| B (“B” refers to AUC between 2-5) | Nc1cccc(S(=O)(=O)Nc2ncc(-c3cccc([C@H]4CC[C@H](OC(F)(F)F)C4)c3)c(-c3ccccc3C(F)(F)F)n2)c1 (single isomer, unassigned) [Example 29b] |

| SMILES | TECC24 AUC vs. DMSO (@3 μM) |
| --- | --- |
| CC(C)c1ccccc1-c1nc(NS(=O)(=O)c2ccccc2)cnc1-c1cccc(OCC(F)(F)C(C)(C)C)c1 [Example 1, N-(5-(3-(2,2-difluoro-3,3-dimethylbutoxy)phenyl)-6-(2-isopropylphenyl)pyrazin-2-yl)benzenesulfonamide] | A (“A “refers to AUC > 5) |
| CC(C)c1ccccc1-c1nc(NS(=O)(=O)c2ccccc2)cnc1-n1ccc(OCC(F)(F)C(C)(C)C)n1 [Example 5, N-(5-(3-(2,2-difluoro-3,3-dimethylbutoxy)-1H-pyrazol-1-yl)-6-(2-isopropylphenyl)pyrazin-2-yl)benzenesulfonamide] | A (“A “refers to AUC > 5) |
| CC(C)c1ccccc1-c1nc(NS(=O)(=O)c2cccc(N)c2)ccc1-c1cccc(OCCC(C)(C)C)c1 [Example 16, 3-amino-N-(5-(3-(3,3-dimethylbutoxy)phenyl)-6-(2-isopropylphenyl)pyridin-2-yl)benzenesulfonamide] | A (“A “refers to AUC > 5) |
| Cc1cccc(C)c1-c1nc(NS(=O)(=O)c2ccccc2)ccc1-c1cccc(OCCC(C)(C)C)c1 [Example 15, N-(5-(3-(3,3-dimethylbutoxy)phenyl)-6-(2,6-dimethylphenyl)pyridin-2-yl)benzenesulfonamide] | A (“A “refers to AUC > 5) |
| Cc1cccc(C)c1-c1nc(NS(=O)(=O)c2ccccc2)cnc1-c1cccc(OCC(F)(F)C(C)(C)C)c1 [Example 2, N-(5-(3-(2,2-difluoro-3,3-dimethylbutoxy)phenyl)-6-(2,6-dimethylphenyl)pyrazin-2-yl)benzenesulfonamide] | A (“A “refers to AUC > 5) |
| Cc1cccc(C)c1-c1nc(NS(=O)(=O)c2ccccc2)cnc1-c1cccc(OCCC(C)(C)C)c1 [Example 3, N-(5-(3-(3,3-dimethylbutoxy)phenyl)-6-(2,6-dimethylphenyl)pyrazin-2-yl)benzenesulfonamide] | A (“A “refers to AUC > 5) |

From patent US12583824B2 (Genzyme Corporation, priority 2019, dated 2026)
